Source: patent US9708336B2, “Metallo-beta-lactamase inhibitors” (priority 2014, dated 2017)
Where two headings read alike, the source gives them in different places.

How the values were obtained:
NDM-1 = NDM-1 (Klebsiella pneumoniae, UniProt C7C422); experiment: biochemical; assay type: biochemical; settings: NDM-1 enzyme, CCF2-FA substrate; read-out: NDM-1 IC50
IMP-1 = IMP-1 (Serratia marcescens, UniProt P52699); experiment: biochemical; assay type: biochemical; settings: IMP-1 enzyme, CCF2-FA substrate; read-out: IMP-1 IC50
VIM-1 = VIM-1 (Pseudomonas aeruginosa (strain ATCC 15692 / DSM 22644 / CIP 104116 / JCM 14847 / LMG 12228 / 1C / PRS 101 / PAO1), UniProt A0A0F7KYQ8); experiment: Enzyme activity: determination of IC50, fluorescence assay with CCF2-FA substrate (VIM-1); assay type: biochemical; settings: CCF2-FA substrate
[1] = tested on: Escherichia coli expressing NDM-1 (CLB30016); experiment: Antibiotic potentiation activity: synergistic concentration (MITC95) with imipenem, OD600 growth; assay type: cell-based; settings: (CLB30016, NDM-1), 95% growth inhibition
Summary of the method: (§1)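 Absorbance after a 22–24 h, 35 °C incubation served as the read-out. Wells held bacteria (saline suspension diluted 1:100 into 1.1× CAMHB), imipenem at 4 μg/ml final or optionally 1 μg/ml, and test compound.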

[2] = tested on: Klebsiella pneumoniae expressing VIM-1 (IHMA599644); experiment: as above; assay type: cell-based; settings: Klebsiella pneumoniae IHMA599644 (VIM-1), 95% growth inhibition
Summary of the method: as §1

[3] = tested on: Serratia marcescens expressing IMP-1 (CL5741); experiment: as above; assay type: cell-based; settings: Serratia marcescens CL5741 (IMP-1), 95% growth inhibition
Summary of the method: as §1

[4] = VIM-1 enzyme, read-out: VIM-1 IC50

Sequence of NDM-1 (C7C422 whole entry, looked up, species assumed): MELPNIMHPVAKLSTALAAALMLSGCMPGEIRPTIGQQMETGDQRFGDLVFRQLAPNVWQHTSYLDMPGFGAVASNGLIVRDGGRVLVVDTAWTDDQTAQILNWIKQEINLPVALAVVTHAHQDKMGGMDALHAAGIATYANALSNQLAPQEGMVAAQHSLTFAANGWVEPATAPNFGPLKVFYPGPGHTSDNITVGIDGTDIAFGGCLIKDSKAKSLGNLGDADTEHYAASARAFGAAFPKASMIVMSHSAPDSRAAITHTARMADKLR
Sequence of IMP-1 (P52699 whole entry, looked up): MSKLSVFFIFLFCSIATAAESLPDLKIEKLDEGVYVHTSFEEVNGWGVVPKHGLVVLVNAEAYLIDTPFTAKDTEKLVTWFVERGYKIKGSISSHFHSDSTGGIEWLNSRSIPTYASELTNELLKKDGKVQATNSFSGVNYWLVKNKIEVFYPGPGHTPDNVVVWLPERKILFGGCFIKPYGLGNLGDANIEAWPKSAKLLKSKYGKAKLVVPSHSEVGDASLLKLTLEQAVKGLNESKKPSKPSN

SMILES: NC1CCC(N[C@H]2CC[C@H](c3ccc(C(F)(F)F)c(S(N)(=O)=O)c3-c3nnn[nH]3)CC2)CC1 (stereo partly drawn) [Example 690, 3-{4-[(4-aminocyclohexyl)amino]cyclohexyl}-2-(1H-tetrazol-5-yl)-6-(trifluoromethyl)benzene sulfonamide]
- IC50 (NDM-1): 12.6 nM
- IC50 (IMP-1): 75.9 nM
- IC50 (VIM-1; VIM-1 IC50, VIM-1 enzyme): 5.26 nM
- Escherichia coli MITC95 [1]: 1.563 µM
- Klebsiella pneumoniae MITC95 [2]: 25 µM
- Serratia marcescens MITC95 [3]: 3.125 µM

SMILES: NC1CCC(N[C@H]2CC[C@H](c3ccc(C(F)(F)F)c(S(N)(=O)=O)c3-c3nnn[nH]3)CC2)C1 (stereo partly drawn) [Example 691, 3-{4-[(3-aminocyclopentyl)amino]cyclohexyl}-2-(1H-tetrazol-5-yl)-6-(trifluoromethyl)benzene sulfonamide]
- IC50 (NDM-1): 10.6 nM
- IC50 (IMP-1): 51.8 nM
- IC50 (VIM-1; VIM-1 IC50, VIM-1 enzyme): 6.13 nM
- Escherichia coli MITC95 [1]: 0.7813 µM
- Klebsiella pneumoniae MITC95 [2]: 3.125 µM
- Serratia marcescens MITC95 [3]: 3.125 µM

SMILES: NCCC1CCC(N[C@H]2CC[C@H](c3ccc(C(F)(F)F)c(S(N)(=O)=O)c3-c3nnn[nH]3)CC2)CC1 (stereo partly drawn) [Example 693, 3-(4-{[4-(2-aminoethyl)cyclohexyl]a-mino}cyclohexyl)-2-(1H-tetrazol-5-yl)-6-(trifluoromethyl)benzene sulfonamide]
- IC50 (NDM-1): 36.9 nM
- IC50 (IMP-1): 97.8 nM
- IC50 (VIM-1; [4]): 11.6 nM
- Escherichia coli MITC95 [1]: 3.125 µM
- Klebsiella pneumoniae MITC95 [2]: 12.5 µM
- Serratia marcescens MITC95 [3]: 6.25 µM

SMILES: NC1CC(N[C@H]2CC[C@H](c3ccc(C(F)(F)F)c(S(N)(=O)=O)c3-c3nnn[nH]3)CC2)C1 (stereo partly drawn) [Example 694, 3-{4-[(3-aminocyclobutyl)amino]cyclohexyl}-2-(1H-tetrazol-5-yl)-6-(trifluoromethyl)benzene sulfonamide]
- IC50 (NDM-1): 4.84 nM
- IC50 (IMP-1): 18.6 nM
- IC50 (VIM-1; VIM-1 IC50, VIM-1 enzyme): 2.46 nM
- Escherichia coli MITC95 [1]: 0.3906 µM
- Klebsiella pneumoniae MITC95 [2]: 1.563 µM
- Serratia marcescens MITC95 [3]: 1.563 µM

SMILES: NS(=O)(=O)c1c(C(F)(F)F)ccc([C@H]2CC[C@H](NC3CCCNCC3)CC2)c1-c1nnn[nH]1 (stereo partly drawn) [Example 695, 3-[4-(azepan-4-ylamino)cyclohexyl]-2-(1H-tetrazol-5-yl)-6-(trifluoromethyl)benzene sulfonamide]
- IC50 (NDM-1): 13.6 nM
- IC50 (IMP-1): 42.3 nM
- IC50 (VIM-1; [4]): 13.2 nM
- Escherichia coli MITC95 [1]: 0.7813 µM
- Klebsiella pneumoniae MITC95 [2]: 6.25 µM
- Serratia marcescens MITC95 [3]: 3.125 µM

SMILES: NS(=O)(=O)c1c(C(F)(F)F)ccc([C@H]2CC[C@H](NC3CCNC3)CC2)c1-c1nnn[nH]1 (stereo partly drawn) [Example 696, 3-[4-(pyrrolidin-3-ylamino)cyclohexyl]-2-(1H-tetrazol-5-yl)-6-(trifluoromethyl)benzene sulfonamide]
- IC50 (NDM-1): 1.09 nM
- IC50 (IMP-1): 5.26 nM
- IC50 (VIM-1; [4]): 2.38 nM
- Escherichia coli MITC95 [1]: 0.3906 µM
- Klebsiella pneumoniae MITC95 [2]: 3.125 µM
- Serratia marcescens MITC95 [3]: 1.563 µM

SMILES: NS(=O)(=O)c1c(C(F)(F)F)ccc([C@H]2CC[C@H](NC3CCCNC3)CC2)c1-c1nnn[nH]1 (stereo partly drawn) [Example 697, 3-[4-(piperidin-3-ylamino)cyclohexyl]-2-(1H-tetrazol-5-yl)-6-(trifluoromethyl)benzene sulfonamide]
- IC50 (NDM-1): 1.61 nM
- IC50 (IMP-1): 6.42 nM
- IC50 (VIM-1; VIM-1 IC50, VIM-1 enzyme): 6.33 nM
- Escherichia coli MITC95 [1]: 0.7813 µM
- Klebsiella pneumoniae MITC95 [2]: 6.25 µM
- Serratia marcescens MITC95 [3]: 3.125 µM

SMILES: NS(=O)(=O)c1c(C(F)(F)F)ccc([C@H]2CC[C@H](NC3CCNCC3)CC2)c1-c1nnn[nH]1 [Example 698, 3-[4-(piperidin-4-ylamino)cyclohexyl]-2-(1H-tetrazol-5-yl)-6-(trifluoromethyl)benzene sulfonamide]
- IC50 (NDM-1): 10 nM
- IC50 (IMP-1): 29.6 nM
- IC50 (VIM-1; [4]): 6.52 nM
- Escherichia coli MITC95 [1]: 0.7813 µM
- Klebsiella pneumoniae MITC95 [2]: 3.125 µM
- Serratia marcescens MITC95 [3]: 3.125 µM

SMILES: NCC1CCC(N[C@H]2CC[C@H](c3ccc(C(F)(F)F)c(S(N)(=O)=O)c3-c3nnn[nH]3)CC2)CC1 (stereo partly drawn) [Example 699, 3-(4-{[4-(aminomethyl)cyclohexyl]amino}cyclohexyl)-2-(1H-tetrazol-5-yl)-6-(trifluoromethyl)benzene sulfonamide]
- IC50 (NDM-1): 18 nM
- IC50 (IMP-1): 58.8 nM
- IC50 (VIM-1; [4]): 4.72 nM
- Escherichia coli MITC95 [1]: 3.125 µM
- Klebsiella pneumoniae MITC95 [2]: 6.25 µM
- Serratia marcescens MITC95 [3]: 6.25 µM

SMILES: NCCN[C@H]1CC[C@H](c2ccc(C(F)(F)F)c(S(N)(=O)=O)c2-c2nnn[nH]2)CC1 [Example 700, 3-{4-[(2-aminoethyl)amino]cyclo-hexyl}-2-(1H-tetrazol-5-yl)-6-(trifluoromethyl)benzene sulfonamide]
- IC50 (NDM-1): 3.94 nM
- IC50 (IMP-1): 16.7 nM
- IC50 (VIM-1; VIM-1 IC50, VIM-1 enzyme): 0.958 nM
- Escherichia coli MITC95 [1]: 0.3906 µM
- Klebsiella pneumoniae MITC95 [2]: 1.563 µM
- Serratia marcescens MITC95 [3]: 3.125 µM

SMILES: NC1CCC(N[C@H]2CC[C@H](c3ccc(C(F)(F)F)c(S(N)(=O)=O)c3-c3nnn[nH]3)CC2)CC1 (stereo partly drawn) [Example 701, 3-{4-[(4-aminocyclohexyl)amino]cyclohexyl}-2-(1H-tetrazol-5-yl)-6-(trifluoromethyl)benzene sulfonamide]
- IC50 (NDM-1): 15.4 nM
- IC50 (IMP-1): 62.9 nM
- IC50 (VIM-1; VIM-1 IC50, VIM-1 enzyme): 12.7 nM
- Escherichia coli MITC95 [1]: 0.7813 µM
- Klebsiella pneumoniae MITC95 [2]: 6.25 µM
- Serratia marcescens MITC95 [3]: 3.125 µM

SMILES: NC1CC(N[C@H]2CC[C@H](c3ccc(C(F)(F)F)c(S(N)(=O)=O)c3-c3nnn[nH]3)CC2)C1 (stereo partly drawn) [Example 702, 3-{4-[(3-aminocyclobutyl)amino]cyclohexyl}-2-(1H-tetrazol-5-yl)-6-(trifluoromethyl)benzene sulfonamide]
- IC50 (NDM-1): 4.02 nM
- IC50 (IMP-1): 25.2 nM
- IC50 (VIM-1; VIM-1 IC50, VIM-1 enzyme): 2.25 nM
- Escherichia coli MITC95 [1]: 0.7813 µM
- Klebsiella pneumoniae MITC95 [2]: 1.563 µM
- Serratia marcescens MITC95 [3]: 3.125 µM

SMILES: NC1CCC(N[C@H]2CC[C@H](c3ccc(C(F)(F)F)c(S(N)(=O)=O)c3-c3nnn[nH]3)CC2)C1 (stereo partly drawn) [Example 703, 3-{4-[(3-aminocyclopentyl)amino]cyclohexyl}-2-(1H-tetrazol-5-yl)-6-(trifluoromethyl)benzene sulfonamide]
- IC50 (NDM-1): 6.14 nM
- IC50 (IMP-1): 38 nM
- IC50 (VIM-1; VIM-1 IC50, VIM-1 enzyme): 8.38 nM
- Escherichia coli MITC95 [1]: 0.3906 µM
- Klebsiella pneumoniae MITC95 [2]: 12.5 µM
- Serratia marcescens MITC95 [3]: 3.125 µM

SMILES: NCC1CCC(N[C@H]2CC[C@H](c3ccc(C(F)(F)F)c(S(N)(=O)=O)c3-c3nnn[nH]3)CC2)CC1 (stereo partly drawn) [Example 704, 3-(4-{[4-(aminomethyl)cyclohexyl]amino}cyclohexyl)-2-(1H-tetrazol-5-yl)-6-(trifluoromethyl)benzene sulfonamide]
- IC50 (NDM-1): 14.8 nM
- IC50 (IMP-1): 51.6 nM
- IC50 (VIM-1; [4]): 7.17 nM
- Escherichia coli MITC95 [1]: 1.563 µM
- Klebsiella pneumoniae MITC95 [2]: 6.25 µM
- Serratia marcescens MITC95 [3]: 6.25 µM

SMILES: NCCC1CCC(N[C@H]2CC[C@H](c3ccc(C(F)(F)F)c(S(N)(=O)=O)c3-c3nnn[nH]3)CC2)CC1 (stereo partly drawn) [Example 705, 3-(4-{[4-(2-aminoethyl)cyclohexyl]a-mino}cyclohexyl)-2-(1H-tetrazol-5-yl)-6-(trifluoromethyl)benzene sulfonamide]
- IC50 (NDM-1): 18.2 nM
- IC50 (IMP-1): 61.1 nM
- IC50 (VIM-1; [4]): 5.7 nM
- Escherichia coli MITC95 [1]: 2.344 µM
- Klebsiella pneumoniae MITC95 [2]: 12.5 µM
- Serratia marcescens MITC95 [3]: 4.688 µM
